Results: patent US20250163150A1, “COMBINATION THERAPIES COMPRISING A KRAS INHIBITOR FOR THE TREATMENT OF CANCER” (I-Mab Biopharma US Limited, priority 2022, published 2025)

Key:
[1] = tested on: human NCI-H358 non-small cell lung cancer (NSCLC) tumor xenografts (KRAS G12C); assay: In vivo anti-tumor efficacy in mice bearing NCI-H358 NSCLC tumor xenografts; design: species or system CB17 SCID mice; conditions: 1 mg/kg QD (AMG-510 p.o., TJC4 i.p.), tumor size over 15 days, FIG. 1
Description: The anti-tumor efficacy of anti-CD47 antibody TJC4 in combination with the KRAS G12C inhibitor AMG-510 was assessed in mice bearing human NCI-H358 non-small cell lung cancer (NSCLC) tumor xenografts. The NCI-H358 cell line, which was established from a chemotherapy-naïve NSCLC tumor, harbors a KRAS G12C mutation. TJC4 is an exemplary anti-CD47 antibody that comprises a VH that comprises SEQ ID NO: 1, a VL that comprises SEQ ID NO: 2, and a human IgG4 Fe region that comprises an S228P substitution (EU numbering). AMG-510 is also known as Sotorasib. KRAS G12C mutations, which are common in NSCLC, lead to constitutive activation of the tumor growth-promoting RAS/MAPK signaling pathway. […]
Each animal's tumor size was measured three times per week for 15 days. Tumor size was calculated as V=0.5L×W^2, where L and W indicate long and short diameters of the tumor, respectively. Anti-tumor efficacy of the drugs was also analyzed by TGI % (percentage of tumor growth inhibition). TGI % was calculated as: […]
where TRTV is treatment group RTV, and CRTV is control group RTV. RTV=VN/V1, where V1 is the mean tumor volume measured on Day 1 of administration, and VN is the mean tumor volume measured on Day N of administration.
The synergy of the combination of TJC4 and AMG-510 was calculated as: […]

[2] = tested on: NCI-H358 human NSCLC tumor cells (KRAS G12C); assay: In vitro phagocytosis of NCI-H358 tumor cells by M0 macrophages (IncuCyte pHrodo); type: cell-based; conditions: AMG 510 pre-treatment 0.1, 1 or 10 μm 24 hours, then M0 macrophage 1:1 and 1 μg/ml TJC4 3-6 hours, FIG. 4A-4C
Description: The following experiments were performed to assess the effects of anti-CD47 antibody TJC4 in combination with the KRAS G12C inhibitor AMG-510 on the in vitro phagocytosis of NCI-H358 human NSCLC tumor cells. As discussed in Example 1, NCI-H358 cells bear the KRAS G12C mutation. The in vitro phagocytosis assays were performed by co-culturing M0 macrophage cells with INCUCYTE® PHRODO®-labeled NCI-H358 tumor cells. Briefly, prior to co-culture, NCI-H358 cells were pre-treated with AMG 510 at the concentrations of 0 μm, 0.1 μm, 1 μm, or 10 μm for 24 hours. The NCI-H358 cells were further incubated with M0 macrophage (at a ratio of 1:1) and 1 μg/ml TJC4 for 3-6 hours. The NCI-H358 cells were then subject to INCUCYTE® ZOOM Live-Cell Imaging System analysis, and the percentage of phagocytosed NCI-H358 was calculated.
Synergy of the combination of AMG 510 and TJC4 in inducing phagocytosis was calculated as: […]
An F value≥1.00 indicates a synergistic effect between AMG-510 and TJC4.

[3] = tested on: human LS180 colon adenocarcinoma tumor xenografts; assay: In vivo anti-tumor efficacy in mice bearing LS180 colon adenocarcinoma xenografts (bioluminescence imaging); design: species or system BALB/c nude mice; conditions: MRTX1133 20 mg/kg, TJC4 1 mg/kg, intraperitoneally twice a week for four weeks, FIG. 7B
Description: The anti-tumor efficacy of anti-CD47 antibody TJC4 in combination with the KRAS G12D inhibitor MRTZ1133 was assessed in mice bearing human LS180 colon adenocarcinoma tumor xenografts. Briefly, 5×10^5 LS180 cells were injected into the cecal walls of BALB/c nude mice. Tumors formed and grew stably after 2 weeks. Mice were given one of the following treatments for four weeks: (a) PBS (control); (b) TJC4 (1 mg/kg, intraperitoneally twice a week); (c) MRTX1133 (20 mg/kg, intraperitoneally twice a week); or (d) MRTX1133 (20 mg/kg, intraperitoneally twice a week)+TJC4 (1 mg/kg, intraperitoneally twice a week). Tumor growth was evaluated by Bioluminescence imaging (BLI) every week.

[4] = tested on: LS180 human colon adenocarcinoma cells; assay: Apoptosis of LS180 cells (FITC-Annexin V / PI flow cytometry); type: cell-based; conditions: MRTX1133 100 nM, TJC4 0.5 μg/ml, 24 hours; combination compared to either agent alone, FIG. 6A/6B
Description: LS180 human colon adenocarcinoma cells were incubated with (a) DMSO, (b) the KRAS G12D inhibitor MRTX1133 (100 nM), (c) anti-CD47 antibody TJC4 (0.5 μg/ml), or (d) MRTX1133 (100 nM)+TJC4 (0.5 μg/ml) for 24 hours and then labeled with fluorescein isothiocyanate (FITC)-Annexin V and propidium iodide (PI). Annexin V (or Annexin A5) is a member of the annexin family of intracellular proteins that binds to phosphatidylserine (PS) in a calcium-dependent manner. PS is normally only found on the intracellular leaflet of the plasma membrane in healthy cells, but during early apoptosis, membrane asymmetry is lost, and PS translocates to the external leaflet. FITC-labeled Annexin V can then be used to specifically target and identify apoptotic cells. PI a cell impermeable nucleic acid intercalating dye. Following staining, the cells were analyzed via flow cytometry.

KRAS G12D mutant protein = KRAS G12D mutant protein (Homo sapiens, UniProt P01116, G12D); conditions: Wang et al. (2022) J Med Chem; cited from earlier work
[5] = tested on: LS180 human colon adenocarcinoma cells (KRAS G12D); assay: In vitro phagocytosis of LS180 colon cancer cells by macrophages (flow cytometry); type: cell-based; conditions: MRTX1133 100 nM, TJC4 0.5 μg/ml, 24 hours; co-culture 2 hours; combination compared to either agent alone, FIG. 5B
Description: LS180 human colon adenocarcinoma cells, which harbor the KRAS G12D mutation were incubated with (a) DMSO, (b) the KRAS G12D inhibitor MRTX1133 (100 nM), (c) anti-CD47 antibody TJC4 (0.5 μg/ml), or (d) MRTX1133 (100 nM)+TJC4 (0.5 μg/ml) for 24 hours and then labeled with 2.5 μM carboxyfluorescein succinimidyl ester (CFSE) for 10 minutes at 37° C. Macrophage cells, which were obtained by human THP-1 leukemia monocyte cells with lipopolysaccharide (LPS) for 24 hours, were cultured in a serum free medium for 2 hours and then added to 2×10^5 CFSE-labeled LS180 cells. The macrophages and the LS180 cells were co-cultured at 37° C. for 2 hours. Macrophages were then stained with an APC-labeled anti-F4/80 antibody, and CFSE+ F4/80+ cells were detected by flow cytometry (10,000 cells analyzed in each sample). The percentage of macrophage-phagocytosed LS180 cells was calculated by dividing the number of CFSE+ F4/80+ cells (see the top right quadrant, i.e., Q2, of each flow cytometry histogram in FIG. 5A) by the number CFSE+ cells (see the top left and right quadrants, i.e., Q1 and Q2, respectively) of each flow cytometry histogram in FIG. 5A). In other words, macrophage-phagocytosed LS180 cells (%)=[Q2/(Q1+Q2)]×100%.

Molecule	tumor growth inhibition as compared to mice treated with PBS control [1]	TJC4-mediated phagocytosis of NCI-H358 by macrophages [2]	tumor growth (bioluminescence imaging) [3]	apoptosis of LS180 cells [4]	specificity to the KRAS G12D mutant protein relative to wild-type KRAS (KRAS G12D mutant protein)	phagocytosis of LS180 cells by macrophages [5]
C=CC(=O)N1CCN(c2nc(=O)n(-c3c(C)ccnc3C(C)C)c3nc(-c4c(O)cccc4F)c(F)cc23)[C@@H](C)C1 [AMG-510, 6-Fluoro-7-(2-fluoro-6-hydroxyphenyl)-(1M)-1-[4-methyl-2-(propan-2-yl)pyridin-3-yl]-4-[(2S)-2-methyl-4-(prop-2-enoyl)piperazin-1-yl]pyrido[2,3-d]pyrimidin-2(1H)-one]	did not demonstrate tumor growth inhibition	enhanced	–	–	–	–
C#Cc1c(F)ccc2cc(O)cc(-c3ncc4c(N5CC6CCC(C5)N6)nc(OC[C@@]56CCCN5C[C@H](F)C6)nc4c3F)c12 [MRTX1133]	–	–	inhibited tumor growth	increased	more than 1000 times	increased
TJC4: anti-CD47 antibody with VH SEQ ID NO: 1, VL SEQ ID NO: 2 and human IgG4 Fc region comprising S228P substitution (antibody, V domains shown, human IgG4 Fc with S228P, no entry) VH: EVQLVESGGGLVKPGGSLRLSCAASGLTFERAWMNWVRQAPGKGLEWVGRIKRKTDGETTDYAAPVKGRFSISRDDSKNTLYLQMNSLKTEDTAVYYCAGSNRAFDIWGQGTMVTVSS VL: DIVMTQSPDSLAVSLGERATINCKSSQSVLYAGNNRNYLAWYQQKPGQPPKLLINQASTRASGVPDRFSGSGSGTEFTLIISSLQAEDVAIYYCQQYYTPPLAFGGGTKLEIK	did not demonstrate tumor growth inhibition	–	weak inhibitory effect	increased	–	increased
